From patent US12435044B2, “Pyridazinone herbicides and pyridazinone intermediates used to prepare a herbicide” (FMC Corporation, priority 2018, dated 2025)

Key:
Test in all cases: Test C pre-/postemergence greenhouse test
Type in all cases: in vivo
Conditions in all cases: scale 0 to 100
[1] = system: ragweed (common ragweed, Ambrosia elatior)
Text: (§1) Seeds of plant species selected from blackgrass (Alopecurus myosuroides), ryegrass, Italian (Lolium multiflorum), wheat, winter (winter wheat, Triticum aestivum), galium (catchweed bedstraw, Galium aparine), corn (Zea mays), crabgrass, large (Digitaria sanguinalis), foxtail, giant (Setaria faberii), johnsongrass (Sorghum halepense), lambsquarters (Chenopodium album), morningglory (Ipomoea coccinea), nutsedge, yellow (Cyperus esculentus), pigweed (Amaranthus retroflexus), ragweed (common ragweed, Ambrosia elatior), soybean (Glycine max), barnyardgrass (Echinochloa crus-galli), oilseed rape (Brassica napus), waterhemp (common waterhemp, Amaranthus rudis), pigweed, palmer (Amaranthus palmeri), kochia (Kochia scoparia), oat, wild (Avena fatua), surinam grass (Brachiaria decumbens), windgrass (Apera spica-venti), poinsettia, wild (Euphorbia heterophylla) and velvetleaf (Abutilon theophrasti) were planted into a silt loam soil and treated preemergence with test chemicals formulated in a non-phytotoxic solvent mixture which included a surfactant.
(§2) At the same time, plants selected from these crop and weed species and also chickweed (common chickweed, Stellaria media), buckwheat, wild (Polygonum convolvulus), mustard, wild (Sinapis arvensis), field poppy (Papaver rhoeas), field violet (Viola arvensis), nightshade (eastern black nightshade, Solanum ptycanthum), speedwell (bird's-eye speedwell, Veronica persica), horseweed (Conyza canadensis), cutleaf geranium (Geranium dissectum), and Canada thistle (Cirsium arvense) were planted in pots containing Redi-Earth® planting medium (Scotts Company, 14111 Scottslawn Road, Marysville, Ohio 43041) comprising spaghnum peat moss, vermiculite, wetting agent and starter nutrients and treated with postemergence applications of test chemicals formulated in the same manner. Plants ranged in height from 2 to 18 cm (1- to 4-leaf stage) for postemergence treatments. Treated plants and controls were maintained in a greenhouse for 13 to 21 d, after which time all species were compared to controls and visually evaluated. Plant response ratings, summarized in Table C-1 (postemergence) and C-2 (preemergence), are based on a scale of 0 to 100 where 0 is no effect and 100 is complete control. A dash (-) response means no test result.

[2] = system: windgrass (Apera spica-venti)
Text: as §1, §2

[3] = system: lambsquarters (Chenopodium album)
Text: as §1, §2

[4] = system: poinsettia, wild (Euphorbia heterophylla)
Text: as §1, §2

[5] = system: crabgrass, large (Digitaria sanguinalis)
Text: as §1, §2

corn (Zea mays) = system: corn (Zea mays)
Text: as §1, §2

[6] = system: johnsongrass (Sorghum halepense)
Text: as §1, §2

[7] = system: morningglory (Ipomoea coccinea)
Text: as §1, §2

[8] = system: blackgrass (Alopecurus myosuroides)
Text: as §1, §2

[9] = system: oilseed rape (Brassica napus)
Text: as §1, §2

[10] = system: galium (catchweed bedstraw, Galium aparine)
Text: as §1, §2

soybean (Glycine max) = system: soybean (Glycine max)
Text: as §1, §2

[11] = system: barnyardgrass (Echinochloa crus-galli)
Text: as §1, §2

## Cc1ccc2ccc(Cl)cc2c1-c1c(O)c(Cl)nn(C)c1=O [Cpd. No. 22]
[1]; Postemergence, 16 g ai/ha
  Plant response rating, Ragweed: 90
[1]; Postemergence, 31 g ai/ha
  Plant response rating, Ragweed: 95
[1]; Postemergence, 62 g ai/ha
  Plant response rating, Ragweed: 100
[1]; Postemergence, 125 g ai/ha
  Plant response rating, Ragweed: 100
[1]; Preemergence, 31 g ai/ha
  Plant response rating, Ragweed: 60
[1]; Preemergence, 61 g ai/ha
  Plant response rating, Ragweed: 60
[1]; Preemergence, 62 g ai/ha
  Plant response rating, Ragweed: 90
[1]; Preemergence, 125 g ai/ha
  Plant response rating, Ragweed: 100
[2]; Postemergence, 16 g ai/ha
  Plant response rating, Windgrass: 85
[2]; Postemergence, 31 g ai/ha
  Plant response rating, Windgrass: 85
[2]; Postemergence, 62 g ai/ha
  Plant response rating, Windgrass: 100
[2]; Postemergence, 125 g ai/ha
  Plant response rating, Windgrass: 100
[2]; Preemergence, 31 g ai/ha
  Plant response rating, Windgrass: 80
[2]; Preemergence, 61 g ai/ha
  Plant response rating, Windgrass: 0
[2]; Preemergence, 62 g ai/ha
  Plant response rating, Windgrass: 85
[2]; Preemergence, 125 g ai/ha
  Plant response rating, Windgrass: 100
[3]; Postemergence, 16 g ai/ha
  Plant response rating, Lambsquarters: 80
[3]; Postemergence, 31 g ai/ha
  Plant response rating, Lambsquarters: 85
[3]; Postemergence, 62 g ai/ha
  Plant response rating, Lambsquarters: 100
[3]; Postemergence, 125 g ai/ha
  Plant response rating, Lambsquarters: 85
[3]; Preemergence, 31 g ai/ha
  Plant response rating, Lambsquarters: 75
[3]; Preemergence, 61 g ai/ha
  Plant response rating, Lambsquarters: 70
[3]; Preemergence, 62 g ai/ha
  Plant response rating, Lambsquarters: 90
[3]; Preemergence, 125 g ai/ha
  Plant response rating, Lambsquarters: 100
[4]; Postemergence, 16 g ai/ha
  Plant response rating, Poinsettia, Wild: 25
[4]; Postemergence, 31 g ai/ha
  Plant response rating, Poinsettia, Wild: 25
[4]; Postemergence, 62 g ai/ha
  Plant response rating, Poinsettia, Wild: 40
[4]; Postemergence, 125 g ai/ha
  Plant response rating, Poinsettia, Wild: 35
[4]; Preemergence, 31 g ai/ha
  Plant response rating, Poinsettia, Wild: 5
[4]; Preemergence, 61 g ai/ha
  Plant response rating, Poinsettia, Wild: 5
[4]; Preemergence, 62 g ai/ha
  Plant response rating, Poinsettia, Wild: 10
[4]; Preemergence, 125 g ai/ha
  Plant response rating, Poinsettia, Wild: 35
[5]; Postemergence, 16 g ai/ha
  Plant response rating, Crabgrass, Large: 10
[5]; Postemergence, 31 g ai/ha
  Plant response rating, Crabgrass, Large: 25
[5]; Postemergence, 62 g ai/ha
  Plant response rating, Crabgrass, Large: 15
[5]; Postemergence, 125 g ai/ha
  Plant response rating, Crabgrass, Large: 60
[5]; Preemergence, 31 g ai/ha
  Plant response rating, Crabgrass, Large: 25
[5]; Preemergence, 61 g ai/ha
  Plant response rating, Crabgrass, Large: 5
[5]; Preemergence, 62 g ai/ha
  Plant response rating, Crabgrass, Large: 75
[5]; Preemergence, 125 g ai/ha
  Plant response rating, Crabgrass, Large: 85
Corn (Zea mays); Postemergence, 16 g ai/ha
  Plant response rating, Corn: 0
Corn (Zea mays); Postemergence, 31 g ai/ha
  Plant response rating, Corn: 20
Corn (Zea mays); Postemergence, 62 g ai/ha
  Plant response rating, Corn: 35
Corn (Zea mays); Postemergence, 125 g ai/ha
  Plant response rating, Corn: 25
Corn (Zea mays); Preemergence, 31 g ai/ha
  Plant response rating, Corn: 10
Corn (Zea mays); Preemergence, 61 g ai/ha
  Plant response rating, Corn: 5
Corn (Zea mays); Preemergence, 62 g ai/ha
  Plant response rating, Corn: 5
Corn (Zea mays); Preemergence, 125 g ai/ha
  Plant response rating, Corn: 30
[6]; Postemergence, 16 g ai/ha
  Plant response rating, Johnsongrass: 20
[6]; Postemergence, 31 g ai/ha
  Plant response rating, Johnsongrass: 40
[6]; Postemergence, 62 g ai/ha
  Plant response rating, Johnsongrass: 50
[6]; Postemergence, 125 g ai/ha
  Plant response rating, Johnsongrass: 60
[6]; Preemergence, 31 g ai/ha
  Plant response rating, Johnsongrass: 30
[6]; Preemergence, 61 g ai/ha
  Plant response rating, Johnsongrass: 5
[6]; Preemergence, 62 g ai/ha
  Plant response rating, Johnsongrass: 50
[6]; Preemergence, 125 g ai/ha
  Plant response rating, Johnsongrass: 70
[7]; Postemergence, 16 g ai/ha
  Plant response rating, Morningglory: 85
[7]; Postemergence, 31 g ai/ha
  Plant response rating, Morningglory: 100
[7]; Postemergence, 62 g ai/ha
  Plant response rating, Morningglory: 100
[7]; Postemergence, 125 g ai/ha
  Plant response rating, Morningglory: 100
[7]; Preemergence, 31 g ai/ha
  Plant response rating, Morningglory: 35
[7]; Preemergence, 61 g ai/ha
  Plant response rating, Morningglory: 25
[7]; Preemergence, 125 g ai/ha
  Plant response rating, Morningglory: 85
[8]; Postemergence, 16 g ai/ha
  Plant response rating, Blackgrass: 70
[8]; Postemergence, 31 g ai/ha
  Plant response rating, Blackgrass: 85
[8]; Postemergence, 62 g ai/ha
  Plant response rating, Blackgrass: 90
[8]; Postemergence, 125 g ai/ha
  Plant response rating, Blackgrass: 100
[8]; Preemergence, 31 g ai/ha
  Plant response rating, Blackgrass: 25
[8]; Preemergence, 61 g ai/ha
  Plant response rating, Blackgrass: 5
[8]; Preemergence, 62 g ai/ha
  Plant response rating, Blackgrass: 30
[8]; Preemergence, 125 g ai/ha
  Plant response rating, Blackgrass: 85
[9]; Postemergence, 16 g ai/ha
  Plant response rating, Oilseed Rape: 85
[9]; Postemergence, 31 g ai/ha
  Plant response rating, Oilseed Rape: 90
[9]; Postemergence, 62 g ai/ha
  Plant response rating, Oilseed Rape: 95
[9]; Postemergence, 125 g ai/ha
  Plant response rating, Oilseed Rape: 100
[9]; Preemergence, 31 g ai/ha
  Plant response rating, Oilseed Rape: 0
[9]; Preemergence, 61 g ai/ha
  Plant response rating, Oilseed Rape: 0
[9]; Preemergence, 62 g ai/ha
  Plant response rating, Oilseed Rape: 100
[9]; Preemergence, 125 g ai/ha
  Plant response rating, Oilseed Rape: 100
[10]; Postemergence, 16 g ai/ha
  Plant response rating, Galium: 85
[10]; Postemergence, 31 g ai/ha
  Plant response rating, Galium: 85
[10]; Postemergence, 62 g ai/ha
  Plant response rating, Galium: 95
[10]; Postemergence, 125 g ai/ha
  Plant response rating, Galium: 98
[10]; Preemergence, 31 g ai/ha
  Plant response rating, Galium: 50
[10]; Preemergence, 61 g ai/ha
  Plant response rating, Galium: 20
[10]; Preemergence, 62 g ai/ha
  Plant response rating, Galium: 70
[10]; Preemergence, 125 g ai/ha
  Plant response rating, Galium: 95
Soybean (Glycine max); Postemergence, 16 g ai/ha
  Plant response rating, Soybean: 5
Soybean (Glycine max); Postemergence, 31 g ai/ha
  Plant response rating, Soybean: 10
Soybean (Glycine max); Postemergence, 62 g ai/ha
  Plant response rating, Soybean: 20
Soybean (Glycine max); Postemergence, 125 g ai/ha
  Plant response rating, Soybean: 25
Soybean (Glycine max); Preemergence, 31 g ai/ha
  Plant response rating, Soybean: 5
Soybean (Glycine max); Preemergence, 61 g ai/ha
  Plant response rating, Soybean: 0
Soybean (Glycine max); Preemergence, 62 g ai/ha
  Plant response rating, Soybean: 0
Soybean (Glycine max); Preemergence, 125 g ai/ha
  Plant response rating, Soybean: 30
[11]; Postemergence, 16 g ai/ha
  Plant response rating, Barnyardgrass: 85
[11]; Postemergence, 31 g ai/ha
  Plant response rating, Barnyardgrass: 90
[11]; Postemergence, 62 g ai/ha
  Plant response rating, Barnyardgrass: 95
[11]; Postemergence, 125 g ai/ha
  Plant response rating, Barnyardgrass: 95
[11]; Preemergence, 31 g ai/ha
  Plant response rating, Barnyardgrass: 65
[11]; Preemergence, 61 g ai/ha
  Plant response rating, Barnyardgrass: 5
[11]; Preemergence, 62 g ai/ha
  Plant response rating, Barnyardgrass: 85
[11]; Preemergence, 125 g ai/ha
  Plant response rating, Barnyardgrass: 100
